From ChEMBL document CHEMBL3860032, “Identification of noncovalent proteasome inhibitors with high selectivity for chymotrypsin-like activity by a multistep structure-based virtual screening” (Eur J Med Chem, 2016) come the findings set out here.

For experiment [1], the system named is MM1R. As to the kind of experiment: Inhibition of proteasome activity in human MM1R cells assessed as increase in total ubiquitin levels at 20 uM after 24 hrs by Western blot method. The experiment is classed as cell-based.
Experiment [2] can be described thus: Cytotoxicity against human MM1R cells assessed as residual vitality at 100 uM after 24 hrs by MTT assay relative to control. The experiment is classed as functional.
For experiment [3], the target named is T1, Proteasome Macropain subunit MB1 (Homo sapiens, UniProt P28074).
T1 sequence (P28074 whole entry): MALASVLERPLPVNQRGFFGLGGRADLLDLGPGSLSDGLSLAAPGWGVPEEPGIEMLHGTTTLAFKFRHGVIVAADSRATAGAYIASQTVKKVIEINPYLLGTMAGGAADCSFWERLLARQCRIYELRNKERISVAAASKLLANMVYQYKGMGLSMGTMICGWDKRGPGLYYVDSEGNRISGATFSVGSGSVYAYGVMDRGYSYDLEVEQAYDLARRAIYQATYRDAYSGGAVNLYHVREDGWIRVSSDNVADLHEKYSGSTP
As to the kind of experiment: Competitive inhibition of chymotrypsin-like activity of human 20S proteasome using Suc-Leu-Leu-Val-Tyr-AMC as substrate measured for 10 mins by fluorescence assay.

The nature of experiment [4]: Cytotoxicity against human MM1R cells assessed as growth inhibition after 24 hrs by MTT assay. The experiment is classed as functional, cell-based. As to conditions: MM.1R.
Experiment [5] deals with T2, Proteasome Macropain subunit MB1 (Homo sapiens) (UniProt P28074).
T2 sequence (whole entry): T1 sequence (P28074 whole entry)
The experiment in a line: Inhibition of chymotrypsin-like activity of human 20S proteasome at 50 uM using Suc-Leu-Leu-Val-Tyr-AMC as substrate measured for 10 mins by fluorescence assay relative to control.

The target of experiment [6] is Proteasome Macropain subunit (Homo sapiens) (UniProt P49721). As to the kind of experiment: Inhibition of trypsin-like activity of human 20S proteasome at 50 uM using Boc-Leu-Arg-Arg-AMC as substrate measured for 10 mins by fluorescence assay relative to control.
Experiment [7] concerns the target T3, Proteasome component C5 (Homo sapiens) (UniProt P20618).
T3 sequence (whole entry): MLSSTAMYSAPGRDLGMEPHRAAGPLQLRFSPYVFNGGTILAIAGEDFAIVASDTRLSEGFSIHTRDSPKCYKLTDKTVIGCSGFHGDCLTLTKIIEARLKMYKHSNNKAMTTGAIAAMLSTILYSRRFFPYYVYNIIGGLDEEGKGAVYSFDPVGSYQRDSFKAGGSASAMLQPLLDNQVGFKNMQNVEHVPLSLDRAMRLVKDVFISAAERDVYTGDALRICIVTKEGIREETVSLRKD
The experiment in a line: Inhibition of post-glutamyl peptide hydrolyzing activity of human 20S proteasome at 50 uM using Cbz-Leu-Leu-Glu-AMC as substrate measured for 10 mins by fluorescence assay relative to control.

The target in experiment [8] is T2, Proteasome Macropain subunit MB1 (Homo sapiens). As to the kind of experiment: Time-dependent inhibition of chymotrypsin-like activity of human 20S proteasome using Suc-Leu-Leu-Val-Tyr-AMC as substrate at 10 to 100 uM by fluorescence assay.
Experiment [9] has as its system MM1R. As to the kind of experiment: Inhibition of proteasome activity in human MM1R cells assessed as increase in total ubiquitin levels at 10 uM after 24 hrs by Western blot method. It counts as cell-based.

SMILES strings stand for the structures. Active and inactive are the calls of the source. The rule behind the calls is not given here. Non-standard residues stand in square brackets, D forms with d. Residues, ends and D or L forms follow the SMILES beside them. ξ: configuration not given here. *: point of attachment. ξY = NC(Cc1ccc(O)cc1)C(=O)O; Nva = CCC[CH](N)C(=O)O; Cbz = O=C(OCc1ccccc1)*; ξI = CCC(C)C(N)C(=O)O; ξL = CC(C)CC(N)C(=O)O; ξT = CC(O)C(N)C(=O)O; NHNH2 = NN*

Sequence of Proteasome Macropain subunit (Homo sapiens) (P49721 whole entry): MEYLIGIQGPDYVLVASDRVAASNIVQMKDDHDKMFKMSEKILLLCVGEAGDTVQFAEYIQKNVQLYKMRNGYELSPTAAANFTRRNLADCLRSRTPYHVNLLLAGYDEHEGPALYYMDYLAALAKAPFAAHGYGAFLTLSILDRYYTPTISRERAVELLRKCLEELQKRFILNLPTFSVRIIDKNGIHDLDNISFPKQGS

`CN/C(=N\CCSCc1ccc2ccccc2n1)NS(=O)(=O)c1ccccc1`: in the experiment with MM1R [1], the “increase in total ubiquitin levels (qualitative)” value (from here on “increase”) is “Active”. For the same molecule, the Activity in [2] amounted to 4%. This molecule had a Ki in experiment [3] of 2.12 µM. Further, the IC50 in experiment [4] stood at 18.3 µM.
`CC(=O)NC(Cc1ccccc1)C(=O)Nc1ccc(C)cc1` (centres undefined): the inhibition in experiment [5] is 43%.
Turning to `CC(=O)NC(Cc1ccccc1)C(=O)Nc1ccc(S(N)(=O)=O)cc1` (centres undefined), the inhibition in [5] stood at 34%.
In the case of `CC(C)(C)OC(=O)Cn1ncn(NC(=O)Cc2ccccc2)c1=O`, the inhibition in experiment [5] is 49%.
`CC(C)(C)Oc1ccc(C[C@@H](NC(=O)OCC2c3ccccc3-c3ccccc32)C(=O)O)cc1` showed an inhibition in experiment [5] of 59%.
With `CC(C)C[C@H](NC(=O)c1cnc2ccccc2n1)C(=O)O`, the inhibition in [5] was found to be 34%.
Still for that read-out and setting: the figure for `CC(C)[C@H](NC(=O)[C@H](Cc1ccc(O)cc1)NC(=O)OCc1ccccc1)C(=O)O` is 21%.
As to `CC(Cc1ccccc1)NC(=O)C(O)C(O)C(O)C(O)CCO` (centres undefined), the inhibition in [5] is 36%; in [6], 6%.
In [5], `CC(NC(=O)OCc1ccccc1)C(=O)NC(Cc1ccc(O)cc1)C(=O)OCc1ccccc1` (centres undefined) had an inhibition of 22%.
For `CCOC(=O)C(NC(=O)Cc1ccccc1)C(=O)OCC`, the inhibition in [5] came to 49%.
In experiment [5], `CCOC(=O)c1ccc(NC(=O)CSc2nc3ccccc3o2)cc1` gave an inhibition of 13%.
For the molecule `CNC(Cc1ccc(OCc2ccccc2)cc1)C(=O)NC(CO)CC(C)C` (centres undefined), the inhibition in experiment [5] was 33%.
`COC(=O)C(CC(C)C)NC(=O)C(Cc1ccc(O)cc1)N(C(=O)OCc1ccccc1)C(=O)OCc1ccccc1` (centres undefined): the inhibition in experiment [5] worked out at 46%.
In turn, `C[C@H](NC(=O)OCc1ccccc1)C(=O)N[C@@H](Cc1ccccc1)C(N)=O` had an inhibition in [5] of 24%.
Turning to `NC(=O)C(NC(=O)c1ccccc1)SCc1ccccc1` (centres undefined), the inhibition in experiment [5] came out at 21%; in experiment [6] it was 3%.
The molecule `NC(=O)C[C@H](NC(=O)OCC1c2ccccc2-c2ccccc21)C(=O)O` came in with an inhibition in experiment [5] of 33%.
`NC(CCC(=O)OCc1ccccc1)C(=O)OCc1ccccc1` (centres undefined) registered an inhibition in experiment [5] of 34%.
In experiment [5], `NC(Cc1c[nH]c2ccccc12)C(=O)OCc1ccccc1` (centres undefined) returned an inhibition of 54%.
Consider `NS(=O)(=O)c1ccc(NC(=O)/C=C/c2ccccc2)cc1`, for which the inhibition stood at 33% in experiment [5] and 11% in experiment [6].
The molecule `O=C(CC(=O)c1cccnc1)NC(=O)c1ccccc1` registered an inhibition in experiment [5] of 43%.
In experiment [5], `O=C(CNC(=O)c1ccccc1)OC(C(=O)O)c1ccc(F)cc1` (centres undefined) had an inhibition of 12%.
As to `O=C(NCc1ccccc1)C(O)C(O)C(O)C(O)CO` (centres undefined), the figures for the inhibition in experiment [5] and in [6] were 15% and 2%, respectively.
As for `O=C(Nc1ccc2nc(O)cc(C(=O)O)c2c1)Oc1ccccc1`, the inhibition in experiment [5] amounted to 48%; in experiment [6] it was 74%.
In turn, `O=C(Nc1ccccc1C(=O)NCC1CC1)c1cccs1` registered an inhibition in experiment [5] of 60%.
`O=C(O)CCCC(=O)NC1CC2c3ccccc3C1c1ccccc12` (centres undefined): the inhibition came out at 31% in experiment [5] and 7% in experiment [6].
In experiment [5], `O=C(O)[C@H](Cc1ccc(O)cc1)NS(=O)(=O)Cc1ccccc1` displayed an inhibition of 60%.
Take `O=C(O)c1ccc(NCn2c(=S)[nH]c3ccccc32)cc1O`: the inhibition in experiment [5] is 54%; in [6] it was 1%.
In experiment [5], `OCC(Oc1ccccc1)C(O)C(O)C(CO)Oc1ccccc1` (centres undefined) had an inhibition of 5%.
Turning to `COC(=O)[C@H](C)NC(=O)[C@H](Cc1ccccc1)NC(=O)[C@H](C)NC(=O)OCc1ccccc1` (Cbz-Ala-Phe-Ala-OMe), the inhibition in experiment [5] and in [7] was 24% throughout.
`CC(O)C(C=O)NC(=O)CNC(=O)OCc1ccccc1` (stereo not drawn) (Cbz-Gly-[ξT]-aldehyde) gave an inhibition in experiment [5] of 23%.
For `COC(=O)[C@H](CO)NC(=O)[C@H](CC(C)C)NC(=O)[C@H](CC(C)C)NC(=O)OCc1ccccc1` (Cbz-Leu-Leu-Ser-OMe), the “increase” value with MM1R [1] is “Active”. For the same molecule, the Activity in experiment [2] was found to be 4%. The same molecule displayed a Ki in experiment [3] of 0.42 µM. Besides, the IC50 in experiment [4] came out at 16.2 µM. In addition, the TDI result in experiment [8] was “Active”.
`CC(C)C[C@H](NC(=O)OCc1ccccc1)C(=O)N[C@@H](Cc1ccc(O)cc1)C(N)=O` (Cbz-Leu-Tyr-NH2) came in with an inhibition in [5] of 17%.
Same read-out and setting: in the case of `COC(=O)[C@H](C)NC(=O)[C@H](CC(C)C)NC(=O)[C@H](Cc1ccccc1)NC(=O)OCc1ccccc1` (Cbz-Phe-Leu-Ala-OMe) it was 22%.
Molecule `COC(=O)[C@H](Cc1ccccc1)NC(=O)[C@H](Cc1ccccc1)NC(=O)[C@H](Cc1ccccc1)NC(=O)OCc1ccccc1` (Cbz-Phe-Phe-Phe-OMe) showed an inhibition in experiment [6] of 18%.
With `CC(C)CC(NC(=O)C(CO)NC(=O)OCc1ccccc1)C(=O)NC(Cc1ccc(O)cc1)C(N)=O` (stereo not drawn) (Cbz-Ser-Leu-Tyr-NH2; configuration not given here), in the experiment on MM1R [1], the “increase” value is “Active”. The Activity in [2] is given as 4%. Besides, the inhibitory constant (Ki) in experiment [3] is 2.18 µM. Moreover, the half-inhibitory concentration (IC50) in [4] was 28.5 µM. Also, the inhibition in [6] was 29%.
As for `CC(C)C[C@H](NC(=O)[C@H](CO)NC(=O)OCc1ccccc1)C(=O)N[C@@H](Cc1ccc(O)cc1)C(=O)NN` (Cbz-Ser-Leu-Tyr-NHNH2), the Activity in experiment [2] came out at 4%. The molecule further returned a Ki in [3] of 11 µM. Also, the inhibition in experiment [7] came to 23%; in [6], 26%. Also, the IC50 in experiment [4] amounted to 29.8 µM. The TDI entry in [8] was “Active”.
Regarding `COC(=O)[C@H](Cc1ccc(O)cc1)NC(=O)[C@H](CC(C)C)NC(=O)[C@H](CO)NC(=O)OCc1ccccc1` (Cbz-Ser-Leu-Tyr-OMe), the “increase” value with MM1R [1] is “Active”. The Activity in [2] was determined as 4%. In addition, in experiment [3], the Ki is 4.7 µM. The IC50 in experiment [4] amounted to 22.3 µM. Besides, the inhibition in [6] was determined as 22%. In addition, in [8], the TDI entry was “Active”.
Take `COC(=O)[C@H](CC(C)C)NC(=O)[C@H](Cc1ccccc1)NC(=O)[C@H](CO)NC(=O)OCc1ccccc1` (Cbz-Ser-Phe-Leu-OMe): in the experiment on MM1R [1], the “increase” value was “Active”. For the same molecule, in experiment [2], the Activity is listed as 4%. The same molecule gave an inhibition constant (Ki) in experiment [3] of 10.3 µM. Besides, the IC50 in [4] amounted to 17.6 µM. Besides, in experiment [8], the TDI result is “Active”.
For the molecule `CC(C)[C@H](NC(=O)[C@H](Cc1ccc(O)cc1)NC(=O)OCc1ccccc1)C(N)=O` (Cbz-Tyr-Val-NH2), the inhibition is 11% in experiment [5] and 23% in experiment [6].
In the case of `COC(=O)[C@H](CC(C)C)NC(=O)[C@H](CC(N)=O)NC(=O)[C@@H](NC(=O)OCc1ccccc1)C(C)C` (Cbz-Val-Asn-Leu-OMe), the results for the inhibition in experiment [5] and in experiment [6] were 15% and 32%, respectively.
The like results for `CCC[C@H](NC(=O)OCc1ccccc1)C(=O)N[C@@H](Cc1ccc(O)cc1)C(N)=O` (Cbz-[Nva]-Tyr-NH2) were, in that order, 18% and 33%.
Molecule `CCCC(NC(=O)OCc1ccccc1)C(=O)NC(Cc1ccc(O)cc1)C(N)=O` (centres undefined) (Cbz-[Nva]-Tyr-NH2; configuration not given here) gave an inhibition in [5] of 17%.
As to `CCC(C)C(NC(=O)OCc1ccccc1)C(=O)N[C@@H](Cc1ccc(O)cc1)C(=O)O` (some centres undefined) (Cbz-[ξI]-Tyr-OH), the results for the inhibition in experiment [5] and in [6] were 34% and 11%, respectively.
`CC(C)CC(NC(=O)OCc1ccccc1)C(=O)N[C@@H](Cc1ccc(O)cc1)C(=O)O` (some centres undefined) (Cbz-[ξL]-Tyr-OH): the inhibition in [5] amounted to 8%.
On the same count and under the same terms, in the case of `O=C(NC(Cc1ccc(O)cc1)C(=O)N[C@@H](Cc1ccccc1)C(=O)O)OCc1ccccc1` (some centres undefined) (Cbz-[ξY]-Phe-OH) it was 7%.
As to `CC(C)C[C@@H](C=O)NC(=O)[C@H](CC(C)C)NC(=O)[C@H](CC(C)C)NC(=O)OCc1ccccc1` [MG-132] (Cbz-Leu-Leu-Leu-aldehyde), in the experiment with MM1R [9], the inhibition entry is “Active”. Further, the IC50 in experiment [4] is 12.3 µM.
